Among the data in patent US8754079B2, “Cycloalkyl containing thienopyrimidines for pharmaceutical compositions” (Boehringer Ingelheim International GmbH, priority 2010, dated 2014) are IC50 values, retold here.

This test addresses T1, MNK2 (Homo sapiens, UniProt Q9HBH9).
T1 construct: the open reading frames of human Mnk1 and Mnk2a were amplified from cDNA; made in house; host or cells: E. coli BL21
The test is described as follows: Mnk2a in vitro kinase assay (indirect fluorescence polarization). It is filed as biochemical. Particulars: pre-activated GST-Mnk2a 2.5 nM, 20 μM ATP, 30 μM substrate peptide. As to the method: Inhibitory potency of compounds against Mnk1, Mnk2a and other kinases was assessed with assays based on a format known to those skilled in the art as the indirect (competitive) fluorescence polarization. The assay detection system comprises a small fluorophore-labeled phospho-peptide (termed ligand) bound to a phospho-specific antibody. The product generated by the kinase reaction competes with the ligand for antibody binding. Based on the larger molecular volume of the bound ligand, which results in a lower rotation rate in solution, its emitted light has a higher degree of polarization than the one from the free ligand.
Example 2a. Mnk1 and Mnk2a in vitro kinase assay
As a source of enzyme, human Mnk1 and human Mnk2a were expressed as GST fusion proteins in E. coli, purified to >80% homogeneity by glutathione affinity chromatography and activated in vitro with pre-activated ERK2. In brief, the open reading frames of human Mnk1 and Mnk2a were amplified from cDNA using the forward/reverse primer pairs
(utilized restriction sites underlined), respectively, and cloned into the BamHI and SalI sites of the vector pGEX-4T1 (Amersham, Sweden, cat. no. 27-4580-01). These constructs allow prokaryotic expression of Mnk1 or Mnk2a as fusion protein with a N-terminal glutathione S-transferase (GST) tag, referred to as GST-Mnk1 or GSTMnk2a. The following expression and purification procedure was identical for GSTMnk1 and GST-Mnk2a, referring in general to GST-Mnk, when not distinguishing between the two isoforms. Expression of GST-Mnk was in E. coli BL21 (Merck Biosciences, Germany, cat. no. 69449). Cells were grown in LB-Bouillon (Merck, Germany, cat. no. 1.10285) supplemented with 100 μg/ml ampicillin (Sigma, Germany, cat. no. A9518) at 37° C. When the culture had reached a density corresponding to an A600 of 0.8, an equal volume of ice cold LB/ampicillin was added, the culture transferred to 25° C. and induced for 4 h with 1 mM isopropyl thiogalactoside (IPTG, Roth, Germany, cat. no. 2316.4). Cells harvested by centrifugation were resuspended in 10 ml lysis buffer (50 mM tris(hydroxymethyl)aminomethane hydrochloride (Tris/HCl, Sigma, Germany, cat. no. T5941) pH 7.5, 300 mM sodium chloride (NaCl, Sigma, Germany, cat. no. S7653), 5% (w/v) glycerol (Sigma, Germany, cat. no. G5516), 3 mM DTT dithiotreitol (DTT, Sigma, Germany, cat. no. D9779)) per gram wet weight cell pellet. Lysates were prepared by disruption of cells with a sonifier and subsequent clearing by centrifugation at 38000 g for 45 min at 4° C.
The lysate was applied to a GSTPrep FF 16/10 column (Amersham, Sweden, cat. no. 17-5234-01) equilibrated with lysis buffer. Removal of unbound material was with 3 column volumes (CV) lysis buffer. Elution was with 2 CV of elution buffer (50 mM Tris/HCl pH 7.5, 300 mM NaCl, 5% (w/v) glycerol, 20 mM glutathione (Sigma, Germany, cat. no. G4251)). Peak fractions were pooled and the protein transferred into storage buffer (50 mM Tris/HCl pH 7.5, 200 mM NaCl, 0.1 mM ethylene glycolbis(2-aminoethylether)-N,N,N′,N′-tetraacetic acid (EGTA, Aldrich, Germany, cat. no. 23, 453-2), 1 mM DTT, 10% (w/v) glycerol, 0.5 M sucrose (Sigma, Germany, cat. no. S0389) by gel filtration on a PD10 desalting column (Amersham, Sweden, cat. no. 17-0851-01). Aliquots were shock frozen in liquid nitrogen and stored at −80° C.
Activation of Mnk1 and Mnk2a was at a concentration of 2.5 μM of either purified GST-Mnk1 or GST-Mnk2a by incubation with 150 nM pre-activated NHis-ERK2 (see ERK2 assay for preparation) and 50 μM adenosine triphosphate (ATP, Sigma, cat. no. A2699) in a buffer comprising 20 mM N-(2-hydroxyethyl)piperazine-N′-(2-ethanesulfonic acid) (HEPES, Fluka, Germany, cat. no 54459)/potassium hydroxide (KOH, Roth, Germany, cat. no 6751.1) pH 7.4, 10 mM magnesium chloride (MgCl2, Sigma, Germany, cat. no. M2670), 0.25 mM DTT, 0.05% (w/v) polyoxyethylene 20 stearylether (Brij 78, Sigma, Germany, cat. no. P4019) (HMDB buffer) for 45 min at 30° C. […]

“And” between values parts separate entries of the source, which are not always exact repeats. Equal entries are not always repeated.

T1 sequence (Q9HBH9 whole entry): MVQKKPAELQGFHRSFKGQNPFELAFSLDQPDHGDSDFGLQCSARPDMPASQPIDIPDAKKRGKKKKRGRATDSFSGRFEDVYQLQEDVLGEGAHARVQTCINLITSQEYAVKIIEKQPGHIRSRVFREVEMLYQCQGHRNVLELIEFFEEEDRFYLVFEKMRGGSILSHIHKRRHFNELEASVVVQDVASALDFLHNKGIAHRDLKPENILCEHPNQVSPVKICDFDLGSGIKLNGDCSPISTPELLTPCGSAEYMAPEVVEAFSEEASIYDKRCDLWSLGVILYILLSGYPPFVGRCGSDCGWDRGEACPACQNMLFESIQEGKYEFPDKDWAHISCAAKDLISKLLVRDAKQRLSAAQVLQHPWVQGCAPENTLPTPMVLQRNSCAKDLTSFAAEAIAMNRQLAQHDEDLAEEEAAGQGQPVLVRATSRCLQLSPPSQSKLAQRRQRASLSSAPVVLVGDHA

“4-(4-fluoro-2-(cis-3-hydroxycyclopentyloxy)phenylamino)-5-methylthieno[2,3-d]pyrimidine-6-carboxamide and 4-(4-fluoro-2-(trans-3-hydroxycyclopentyloxy)phenylamino)-5-methylthieno[2,3-d]pyrimidine-6-carboxamide [Example 242]”: the IC50 is 0.005 µM and 0.004 µM.
Compound `Cc1c(C(=O)NC2CC2N)sc2ncnc(Nc3ccc(F)cc3OC3CCCC(O)C3)c12` (mixture of isomers) [Example 59] displayed an IC50 of 0.034 µM.
On to `Cc1c(C(=O)NCC2CNCCO2)sc2ncnc(Nc3ccc(F)cc3OC3CCCC(O)C3)c12` (mixture of isomers) [Example 67], for which the IC50 came to 0.018 µM.
With `Cc1c(C(=O)NCC2COCCN2)sc2ncnc(Nc3ccc(F)cc3OC3CCCC(O)C3)c12` (mixture of isomers) [Example 68] the figure was 0.031 µM; with `Cc1c(C(=O)NCC(C)O)sc2ncnc(Nc3ccc(F)cc3OC3CCCC(O)C3)c12` (mixture of isomers) [Example 73], 0.043 µM; with `COC1CCCC(Oc2cc(F)ccc2Nc2ncnc3sc(C(=O)NCC4CNCCO4)c(C)c23)C1` (mixture of isomers) [Example 83], 0.053 µM.
With `COC1CCCC(Oc2cc(F)ccc2Nc2ncnc3sc(C(=O)NCC4CNCCO4)c(C)c23)C1` (mixture of isomers) [Example 98] the figure was 0.017 µM.
With `COC1CCCC(Oc2ncccc2Nc2ncnc3sc(C(=O)NC4CC4N)c(C)c23)C1` (mixture of isomers) [Example 111] the figure was 0.036 µM.
For the compound `COC1CCCC(Oc2ncccc2Nc2ncnc3sc(C(=O)NCC4CNCCO4)c(C)c23)C1` (mixture of isomers) [Example 119], the IC50 is 0.011 µM.
For `COC1CCCC(Oc2ncccc2Nc2ncnc3sc(C(=O)NC4CC4N)c(C)c23)C1` (mixture of isomers) [Example 132] the value was 0.096 µM; for `COC1CCCC(Oc2ncccc2Nc2ncnc3sc(C(=O)NCC4COCCN4)c(C)c23)C1` (mixture of isomers) [Example 141], 0.089 µM.
With `COC1CCCC(Oc2ncccc2Nc2ncnc3sc(C(=O)NCC(C)O)c(C)c23)C1` (mixture of isomers) [Example 146] the figure was 0.105 µM.
Compound `Cc1c(C(N)=O)sc2ncnc(Nc3ccc(F)cc3O[C@@H]3CCCC[C@H]3N(C)S(C)(=O)=O)c12` (racemic) [Example 13, Racemic 4-(4-Fluoro-2-(trans-2-(N-methylmethylsulfonamido)cyclohexyloxy)phenylamino)-5-methylthieno[2,3-d]pyrimidine-6-carboxamide] displayed an IC50 of 0.44 µM.
With `CC(=O)N(C)[C@@H]1CCCC[C@H]1Oc1cc(F)ccc1Nc1ncnc2sc(C(N)=O)c(C)c12` (racemic) [Example 14, Racemic 4-(4-fluoro-2-(trans-2-(N-methylacetamido)cyclohexyloxy)phenylamino)-5-methylthieno[2,3-d]pyrimidine-6-carboxamide] the figure was 1.6 µM; with `CO[C@@H]1CCCC[C@H]1Oc1cc(F)ccc1Nc1ncnc2sc(C(N)=O)c(C)c12` (racemic) [Example 50, Racemic 4-[4-Fluoro-2-(trans-2-methoxy-cyclohexyloxy)-phenylamino]-5-methyl-thieno[2,3-d]pyrimidine-6-carboxylic acid amide], 0.01 µM.
For `CO[C@H]1CCCC[C@H]1Oc1cc(F)ccc1Nc1ncnc2sc(C(N)=O)c(C)c12` (racemic) [Example 55, Racemic 4-[4-Fluoro-2-(cis-2-methoxy-cyclohexyloxy)-phenylamino]-5-methyl-thieno[2,3-d]pyrimidine-6-carboxylic acid amide] the value was 0.059 µM.
On to `Cc1c(C(N)=O)sc2ncnc(Nc3ccc(F)cc3O[C@@H]3CCCC[C@@H]3O)c12` (racemic) [Example 56, Racemic 4-[4-Fluoro-2-((cis)-2-hydroxy-cyclohexyloxy)-phenylamino]-5-methyl-thieno[2,3-d]pyrimidine-6-carboxylic acid amide], for which half-maximal inhibition (IC50) was put at 0.033 µM.
For `Cc1c(C(N)=O)sc2ncnc(Nc3ccc(F)cc3O[C@@H]3CCC[C@H](O)C3)c12` (racemic) [Example 57, Racemic 4-[4-Fluoro-2-((cis)-3-hydroxy-cyclohexyloxy)-phenylamino]-5-methyl-thieno[2,3-d]pyrimidine-6-carboxylic acid amide] the value was 0.007 µM; for `Cc1c(C(N)=O)sc2ncnc(Nc3ccc(F)cc3O[C@@H]3CCC[C@@H](O)C3)c12` (racemic) [Example 58, Racemic 4-[4-Fluoro-2-((trans)-3-hydroxy-cyclohexyloxy)-phenylamino]-5-methyl-thieno[2,3-d]pyrimidine-6-carboxylic acid amide], 0.006 µM; for `Cc1c(C(=O)NCC#CCN)sc2ncnc(Nc3ccc(F)cc3O[C@@H]3CCC[C@@H](O)C3)c12` (racemic) [Example 60], 0.014 µM.
With `Cc1c(C(=O)NCCCCO)sc2ncnc(Nc3ccc(F)cc3O[C@@H]3CCC[C@@H](O)C3)c12` (racemic) [Example 61], half-maximal inhibition (IC50) required 0.026 µM.
On to `Cc1c(C(=O)NCc2cnco2)sc2ncnc(Nc3ccc(F)cc3O[C@@H]3CCC[C@@H](O)C3)c12` (racemic) [Example 62], for which it took 0.017 µM to reach half-maximal inhibition (IC50).
For `Cc1c(C(=O)NCC#N)sc2ncnc(Nc3ccc(F)cc3O[C@@H]3CCC[C@@H](O)C3)c12` (racemic) [Example 63] the value was 0.014 µM.
For `CNC(=O)CNC(=O)c1sc2ncnc(Nc3ccc(F)cc3O[C@@H]3CCC[C@@H](O)C3)c2c1C` (racemic) [Example 64] the value was 0.021 µM.
Regarding `Cc1c(C(=O)NCC#CCN(C)C)sc2ncnc(Nc3ccc(F)cc3O[C@@H]3CCC[C@@H](O)C3)c12` (racemic) [Example 65], the midpoint of inhibition, the IC50, lay at 0.016 µM.
For `Cc1c(C(=O)NCCCN2CCOCC2)sc2ncnc(Nc3ccc(F)cc3O[C@@H]3CCC[C@@H](O)C3)c12` (racemic) [Example 66] the value was 0.026 µM.
For `Cc1c(C(=O)N[C@H]2CC[C@H](O)CC2)sc2ncnc(Nc3ccc(F)cc3O[C@@H]3CCC[C@@H](O)C3)c12` (racemic) [Example 69] the value was 0.034 µM; for `Cc1c(C(=O)NCCN2CCCCC2)sc2ncnc(Nc3ccc(F)cc3O[C@@H]3CCC[C@@H](O)C3)c12` (racemic) [Example 72], 0.023 µM.
For `Cc1c(C(=O)NCCCO)sc2ncnc(Nc3ccc(F)cc3O[C@@H]3CCC[C@@H](O)C3)c12` (racemic) [Example 74] the value was 0.022 µM.
Take `Cc1c(C(=O)NCc2cn(C)cn2)sc2ncnc(Nc3ccc(F)cc3O[C@@H]3CCC[C@@H](O)C3)c12` (racemic) [Example 76]: the IC50 is 0.013 µM.
With `CCNC(=O)c1sc2ncnc(Nc3ccc(F)cc3O[C@@H]3CCC[C@@H](O)C3)c2c1C` (racemic) [Example 78] the figure was 0.025 µM; with `CO[C@@H]1CCC[C@@H](Oc2cc(F)ccc2Nc2ncnc3sc(C(N)=O)c(C)c23)C1` (racemic) [Example 79, Racemic 4-[4-Fluoro-2-((trans)-3-methoxy-cyclohexyloxy)-phenylamino]-5-methyl-thieno[2,3-d]pyrimidine-6-carboxylic acid amide], 0.015 µM.
